Results taken from patent US7951921B2, “Multivalent carriers of bi-specific antibodies” (Immunomedics, Inc., priority 2003, dated 2011).
Primed or numbered codes have the meaning given here. DTPA′ = diethylenetriaminepentaacetic acid

Key:
[1] = cited from earlier work
[2] = test system: hMN-14IgG^(I253A)-(734scFv)2; assay: Complex formation of radiolabeled DTPA peptides with bsMAb, size exclusion HPLC; format: binding; conditions: for complexing of bsMAb with radiolabeled indium-DTPA chelates: radioiodinated bsMAb, size exclusion HPLC
From the text: The binding of In-DTPA peptides to the anti-In-DTPA antibody hMN-14IgG^(I253A)-(734scFv)2 was examined by size exclusion HPLC. The bsMAb was radioiodinated using chloramines-T (Greenwood and Hunter). Binding of the radioiodinated bsMAbs to CEA, WI2 (rat anti-MN-14 idiotypic antibody) and radiolabeled peptidyl DTPA chelate was examined on analytical size exclusion HPLC. Approximately 90% of the radioiodinated bsMAb bound to CEA upon treatment with 10-20× molar excess of CEA. The bsMAb complexed with radiolabeled indium-DTPA chelates (IMP-156 or IMP-192).
An IMP 192 kit was labeled with Tc-99m 20.9 mCi. Aliquots from the kit were diluted and mixed with hMN-14IgG^(I253A)-(734scFv)2 in the following molar ratios (peptide/Ab) 1:5, 1:1, and 20:1. The peptide/antibody mixtures, the peptide alone and the antibody alone were examined on a Bio-Sil SEC 250 300 mm×7.8 mm HPC column eluted at 1 mL/min with 0.2 M phosphate buffer pH 6.8.
A known standard of hMN-14IgG^(I253A)-(734scFv)2 eluted from the column at about 9.41 minutes (FIG. 3). A known standard of Tc-99m IMP 192 eluted from the column at about 14.85 minutes (FIG. 4).

[3] = not told; cited from earlier work
[4] = target: CEA (carcinoembryonic antigen) (UniProt P06731); assay: analytical size exclusion HPLC of radioiodinated bsMAb mixed with 10-20x molar excess of CEA
[5] = target: IMP 246 [Ac-Cys-Lys(DTPA)-Tyr-Lys(DTPA)-NH2]2; assay: size exclusion HPLC; In-111 IMP 246 mixed with bsAb at 1:10 (IMP 246:bsAb) mole ratio
[6] = target: IMP 246 [Ac-Cys-Lys(DTPA)-Tyr-Lys(DTPA)-NH2]2; assay: size exclusion HPLC; labeled IMP 246 mixed with hMN-14 IgG^(I253A)-(734scFv)2, 16 hr at 37° C. in mouse serum
[7] = test system: hMN-14IgG^(I253A)-(734scFv)2; assay: Affinity blocking studies on IMP 240-coated BIAcore chip (surface plasmon resonance); format: binding
Experimental: (§1) The binding of In-DTPA peptides to the anti-In-DTPA antibody hMN-14IgG^(I253A)-(734scFv)2 was examined by affinity blocking studies using the IMP 240 peptide, Ac-Lys(DPTA)-Cys-NH2, which comprises a single DPTA group and a single Cys residue that can be used to form disulfide bridges with a second molecule having a free sulfhydryl group.
(§2) The binding studies were performed on a chip coated with IMP 240 using the disulfide connection as recommended by BIAcore. The chip surface was regenerated after each assay with 100 μL 0.025 M In-DTPA in HBS-In-citrate buffer as described. The binding studies were done with picomoles of antibody therefore binding was very sensitive to the slightest trace of In-DTPA left after the displacement wash.

[8] = test system: c734 IgG; assay: as above; format: binding
Experimental: as §1, §2
Studies were performed with c734-IgG to compare the In-DTPA peptide binding behavior of this IgG to the hMN-14IgG^(I253A)-(734scFv)2.

[9] = target: hMN-14IgG^(I253A)-(734scFv)2; assay: SPR blocking assay; peptide premixed with antibody, IMP 240 chip
[10] = target: c734 IgG; assay: as above

Chain of UniProt P06731 (P06731 35-685 limits assumed): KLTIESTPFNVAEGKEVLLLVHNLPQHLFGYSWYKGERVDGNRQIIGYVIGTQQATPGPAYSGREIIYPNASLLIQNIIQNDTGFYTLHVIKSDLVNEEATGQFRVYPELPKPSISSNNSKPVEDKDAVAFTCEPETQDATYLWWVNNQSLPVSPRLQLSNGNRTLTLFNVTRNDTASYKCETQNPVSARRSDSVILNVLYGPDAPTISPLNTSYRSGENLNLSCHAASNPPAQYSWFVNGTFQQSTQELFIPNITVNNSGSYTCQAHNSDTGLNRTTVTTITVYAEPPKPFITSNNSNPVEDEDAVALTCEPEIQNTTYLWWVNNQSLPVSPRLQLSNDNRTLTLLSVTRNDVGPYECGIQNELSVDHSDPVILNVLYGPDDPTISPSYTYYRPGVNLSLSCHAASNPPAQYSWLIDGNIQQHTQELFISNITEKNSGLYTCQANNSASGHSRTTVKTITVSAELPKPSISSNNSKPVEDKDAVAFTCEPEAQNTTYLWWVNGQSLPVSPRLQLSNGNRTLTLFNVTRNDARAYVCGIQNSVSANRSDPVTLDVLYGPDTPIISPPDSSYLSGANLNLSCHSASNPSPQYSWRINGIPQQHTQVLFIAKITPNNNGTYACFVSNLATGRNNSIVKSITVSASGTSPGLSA

**Q.** Which “Water Soluble” value [1] does the source give for `O=C(CCCc1ccc(N2C(=O)C=CC2=O)cc1)ON1C(=O)CC(S(=O)(=O)O)C1=O` (centres unmarked) [Sulfo-SMPB, sulfosuccinimidyl 4-[p-maleimidophenyl]butyrate] here?
**A.** Yes

**Q.** With “Ac-Lys(DTPA)-Tyr-Lys(DTPA)-Lys(TSCG-Cys)-NH2 [IMP 192]” as the molecule, how does the “peptide/antibody complexes formed (HPLC traces)” value ([2]; Tc-99m IMP 192 mixed with antibody, molar ratios 1:5, 1:1, 20:1) read?
**A.** essentially only one peptide/antibody complex is formed

**Q.** And the “complexing of bsMAb with radiolabeled indium-DTPA chelates” value [2]?
**A.** complexed

**Q.** For `O=C(CCCN1C(=O)C=CC1=O)ON1C(=O)CC(S(=O)(=O)O)C1=O` (centres unmarked) [Sulfo-GMBS, N-[γ-Maleimidobutyryloxy] sulfosuccinimide ester], which “Membrane Permeable” value [3] is on record?
**A.** No

**Q.** Which “Membrane Permeable” value [3] does the source give for `O=C(O)CCCCCCCCCCN1C(=O)C=CC1=O` [KMUA] here?
**A.** No

**Q.** With `O=C(ON1C(=O)CCC1=O)C1CCC(CN2C(=O)C=CC2=O)CC1` (centres unmarked) [SMCC, succinimidyl 4-(N-maleimidomethyl)cyclohexane-1-carboxylate] as the molecule, how does the “Membrane Permeable” value [3] read?
**A.** Yes

**Q.** With `CCN=C=NCCCN(C)C` [EDC, 1-ethyl-3-(3-dimethylaminopropyl)-carbodiimide] as the molecule, how does the “Water Soluble” value [1] read?
**A.** Yes

**Q.** With `O=C(CCCN1C(=O)C=CC1=O)ON1C(=O)CCC1=O` [GMBS, N-[γ-Maleimidobutyryloxy] succinimide ester] as the molecule, how does the “Membrane Permeable” value [3] read?
**A.** Yes

**Q.** For `O=C(ON1C(=O)CCC1=O)c1cccc(N2C(=O)C=CC2=O)c1` [MBS, m-maleimidobenzoyl-N-hydoxysuccinimide ester], which “Membrane Permeable” value [3] is on record?
**A.** Yes

**Q.** For `CC(=O)SCCC(=O)ON1C(=O)CCC1=O` [SATP], which “Membrane Permeable” value [3] is on record?
**A.** Yes

**Q.** For `Cl.NCCSSCCC(=O)O` [AEDP], which “Membrane Permeable” value [3] is on record?
**A.** No

**Q.** For `O=C(CI)Nc1ccc(C(=O)ON2C(=O)CC(S(=O)(=O)O)C2=O)cc1` (centres unmarked) [Sulfo-SIAB, sulfosuccinimidyl(4-iodoacetyl)aminobenzoate], which “Membrane Permeable” value [3] is on record?
**A.** No

**Q.** For “hMN-14IgG^(I253A)-(734scFv)2 (bispecific antibody)”, which percent of bsMAb bound [4] is on record?
**A.** 90%

**Q.** What about the percent of In-111 label in the complex peak [5] of the same molecule?
**A.** 90%

**Q.** And the percent of HPLC area in the complex peak after 16 hr in mouse serum [6]?
**A.** > 90%

**Q.** Which “Membrane Permeable” value [3] does the source give for `O=C(O)CCCCCN1C(=O)C=CC1=O` [EMCA] here?
**A.** No

**Q.** Which “Membrane Permeable” value [3] does the source give for `O=C(O)CCN1C(=O)C=CC1=O` [BMPA] here?
**A.** No

**Q.** For `CC(SSc1ccccn1)c1ccc(C(=O)NCCCCCC(=O)ON2C(=O)CC(S(=O)(=O)O)C2=O)cc1` (centres unmarked) [Sulfo-LC-SMPT, sulfosuccinimidyl 6-[a-methyl-a-(2-pyridyl-dithio)toluamido]hexanoate], which “Water Soluble” value [1] is on record?
**A.** Yes

**Q.** For `O=C(ON1C(=O)CC(S(=O)(=O)O)C1=O)C1CCC(CN2C(=O)C=CC2=O)CC1` (centres unmarked) [Sulfo-SMCC, sulfosuccinimidyl 4-(N-maleimidomethyl)cyclohexane-1-carboxylate], which “Membrane Permeable” value [3] is on record?
**A.** No

**Q.** For `O=C(CCSSc1ccccn1)NCCCCCC(=O)ON1C(=O)CC(S(=O)(=O)O)C1=O` (centres unmarked) [Sulfo-LC-SPDP, sulfosuccinimidyl 6-[3′-(2-pyridyldithio)-propionamido] hexanoate], which “Water Soluble” value [1] is on record?
**A.** Yes

**Q.** Which results are given for “Ac-Phe-Lys(DTPA)-Tyr-Lys(DTPA)-NH2 (Ac-FK(DTPA′)YK(DTPA′)-NH2) [IMP 156]”?
**A.** affinity of antibody for In-IMP 156 relative to a single In-DTPA for a c734 IgG binding arm [7]: far higher; equivalents of peptide that block binding to the chip [7]: one equivalent; blocking of antibody binding to the IMP 240 chip ([7]; peptide mixed with antibody in a 1:1 ratio): completely blocked; equivalents of peptide needed to block binding to the chip [8]: two or more equivalents; complexing of bsMAb with radiolabeled indium-DTPA chelates [2]: complexed

**Q.** With `C=CS(=O)(=O)c1ccc(C(=O)ON2C(=O)CCC2=O)cc1` [SVSB] as the molecule, how does the “Membrane Permeable” value [3] read?
**A.** Yes

**Q.** Which “Membrane Permeable” value [3] does the source give for `O=C(ON1C(=O)CC(S(=O)(=O)O)C1=O)c1cccc(N2C(=O)C=CC2=O)c1` (centres unmarked) [Sulfo-MBS, m-maleimidobenzoyl-N-hydoxysulfosuccinimide ester] here?
**A.** No

**Q.** With `O=C(CI)Nc1ccc(C(=O)ON2C(=O)CCC2=O)cc1` [SIAB, N-succinimidyl(4-iodoacetyl)aminobenzoate] as the molecule, how does the “Membrane Permeable” value [3] read?
**A.** Yes

**Q.** Which “blocking of antibody binding to the IMP 240 chip” value ([7]; four equivalents of peptide premixed with the antibody) does the source give for “Ac-Phe-Gln-Tyr-Lys(DTPA)-NH2 (Ac-FQYK(DTPA′)-NH2) [IMP 233]” here?
**A.** not completely blocked

**Q.** And the “blocking of antibody binding to the IMP 240 chip” value ([8]; 4:1 peptide/c734 IgG)?
**A.** did not completely block

**Q.** With `O=C(CBr)NCCC(=O)ON1C(=O)CCC1=O` [SBAP] as the molecule, how does the “Membrane Permeable” value [3] read?
**A.** Yes

**Q.** With `O=C(CCSSc1ccccn1)NCCCCCC(=O)ON1C(=O)CCC1=O` [LC-SPDP, N-succinimidyl 6-[3′-(2-pyridyldithio)propionamido]hexanoate] as the molecule, how does the “Water Soluble” value [1] read?
**A.** No

**Q.** For `O=C(CCCCCNC(=O)C1CCC(CN2C(=O)C=CC2=O)CC1)ON1C(=O)CCC1=O` (centres unmarked) [LC-SMCC, succiminidyl-4-(N-maleimidomethyl)cyclohexane-1-carboxy-(6-amido-caproate)], which “Membrane Permeable” value [3] is on record?
**A.** No

**Q.** With `CC(SSc1ccccn1)c1ccc(C(=O)ON2C(=O)CCC2=O)cc1` (centres unmarked) [SMPT, 4-succinimidyloxycarbonyl-methyl-(2-pyridyldithio)-toluene] as the molecule, how does the “Water Soluble” value [1] read?
**A.** No

**Q.** For `O=C(CCCCCN1C(=O)C=CC1=O)ON1C(=O)CC(S(=O)(=O)O)C1=O` (centres unmarked) [Sulfo-EMCS, N-[ε-maleimidocaproyloxy]sulfosuccinimide ester], which “Membrane Permeable” value [3] is on record?
**A.** No

**Q.** With “hMN-14IgG-(734scFv)2 (bispecific antibody)” as the molecule, how does the percent of In-111 label in the complex peak [5] read?
**A.** 83%

**Q.** Which “Membrane Permeable” value [3] does the source give for `O=C(CCCCCN1C(=O)C=CC1=O)ON1C(=O)CCC1=O` [EMCS, N-[ε-maleimidocaproyloxy]succinimide ester] here?
**A.** Yes

**Q.** With `O=C(CCCCCCCCCCN1C(=O)C=CC1=O)ON1C(=O)CC(S(=O)(=O)O)C1=O.[Na]` (centres unmarked) [Sulfo-KMUS] as the molecule, how does the “Membrane Permeable” value [3] read?
**A.** No

**Q.** For `O=C(CCSSc1ccccn1)ON1C(=O)CCC1=O` [SPDP, N-succinimidyl 3-(2-pyridyldithio)propionate], which “Membrane Permeable” value [3] is on record?
**A.** Yes

B1: IMP 156 Ac-Phe-Lys(DTPA)-Tyr-Lys(DTPA)-NH2 (peptide)
peptide: Ac-FK(DTPA′)YK(DTPA′)-NH2
modifications: also: DTPA loaded with indium
**Q.** For B1, which equivalents of peptide needed to block binding to the IMP 240 chip [9] is on record?
**A.** 1 equivalents

**Q.** And the equivalents of peptide needed to block binding to the IMP 240 chip [10]?
**A.** 2 equivalents
